Data: US20080311099A1, “Pyridoxal-5-Phosphate and Related Compounds in Combination With Therapeutic Cardiovascular Compounds for Treating Angina” (MEDICURE INTERNATIONAL INC., priority 2004, published 2008)

Assays:
[1] = test system: isolated non-ischemic working rat heart; assay: Glucose oxidation rates in isolated non-ischemic working rat heart ([14C] glucose, 14CO2 production); conditions: 60 minutes aerobic perfusion, compound added about 5 minutes into the aerobic period; saline control 1580±183
Protocol: The goal was to determine if […] altered glucose oxidation rates or cardiac function in the isolated non-ischemic working rat heart model. This was achieved by subjecting rat hearts to 60 minutes of aerobic perfusion. […] was added about 5 minutes into the aerobic period and the effects of […] on glucose metabolism was determined during the aerobic period. […] Rat hearts were cannulated for isolated working heart perfusions as described previously (Lopaschuk et al., J Pharmacol Exp Ther. 1993 January;264(1):135-44). In brief, male Sprague-Dawley rats (0.3-0.35 kg) were anesthetized with pentobarbital sodium (60 mg/kg i. p.). The hearts were quickly excised, the aorta was cannulated, and a retrograde perfusion at 37° C. was initiated at a hydrostatic pressure of 60 mm Hg. Hearts were trimmed of excess tissue, and the pulmonary artery and the opening to the left atrium were then cannulated. […] Spontaneously beating hearts were used in all perfusions, heart rate and aortic pressure were measured with a Biopac Systems Inc. blood pressure transducer connected to the aortic outflow line. Cardiac output and aortic flow were measured with Transonic […] ultrasonic flow probes in the preload and afterload lines, respectively. Coronary flow was calculated as the difference between cardiac output and aortic flow. […]

[2] = water, alcohol, and ether; cited from earlier work
[3] = Treatment of stress-induced angina in patients (P5P, pyridoxine, derivatives; alone and in combination therapies); type: in vivo, human
Protocol: Patients with a history of exercise induced angina are treated with P5P either before or after the onset of angina. Several measures are used to test the effectiveness of P5P for the treatment of angina including the time to onset of angina, exercise duration, time to 1 mm ST depression, and patient pain evaluation.
The experiment of Example 25 is repeated, this time testing combination therapies.
The Experiments of Example 28 are repeated, this time using pyridoxine instead of P5P.

[4] = Animal models for treatment of stress-induced angina (canine model of myocardial ischemia, canine model of exertional dysfunction, isolated perfused rat heart model of low flow ischemia); type: in vivo; conditions: compared with untreated or sham treated control animals
Source text: The canine model of myocardial ischemia, the canine model of exertional dysfunction, and the isolated perfused rate heart model of low flow ischemia, as previously and elsewhere described, is used to determine the effectiveness of P5P, pyridoxal, pyridoxine, and the compounds synthesized in Examples 1-24, to determine effectiveness of these compounds in treatment of angina.
The animal model experiments of Example 26 are repeated, this time with the combination treatment groups as elucidated in Examples 28, 29 and 30.

[5] = patients with a history of exercise induced angina, treated before or after the onset of angina

**Q.** With `O=C(O)C(Cl)Cl` [DCA, dichloroacetic acid, reference compound] as the molecule, how does the glucose oxidation rates [1] read?
**A.** The glucose oxidation rates was 2422±140.

**Q.** With `Cc1ncc(COP(=O)(O)O)c(C=O)c1O` [Example P5P, 3-hydroxy-2-methyl-5-[(phosphonooxy)methyl]-4-pyridine-carboxaldehyde] as the molecule, how does the solubility [2] read?
**A.** Its solubility is “essentially insoluble in water, alcohol, and ether”.

**Q.** What about the exercise duration [3, 5] of the same molecule?
**A.** Its exercise duration is “increased”.

**Q.** And the “onset to angina (time to onset of angina)” value [3, 5]?
**A.** The value was “diminished”.

**Q.** And the “patient pain (patient pain evaluation)” value [3, 5]?
**A.** Its value is “diminished”.

**Q.** What about the “time to 1 mm ST depression” value [3, 5] of the same molecule?
**A.** Its value is “diminished”.

**Q.** And the “angina outcomes, treatment alone” value ([3]; patients, P5P treatment alone (Example 28))?
**A.** The value was “improves angina outcomes”.

**Q.** What about the “symptoms and levels of angina” value [4] of the same molecule?
**A.** Its value is “significantly lower symptoms and levels of angina”.

**Q.** What about the glucose oxidation rates [1] of the same molecule?
**A.** Its glucose oxidation rates is 2253±230.

**Q.** Which “symptoms and levels of angina” value [4] does the source give for `Cc1ncc(CO)c(C=O)c1O` [pyridoxal] here?
**A.** The value was “significantly lower symptoms and levels of angina”.

**Q.** Which “symptoms and levels of angina” value [4] does the source give for `Cc1ncc(CO)c(CO)c1O` [pyridoxine, 2-methyl-3-hydroxy-4,5-di(hydroxymethyl)pyridine] here?
**A.** Its value is “significantly lower symptoms and levels of angina”.
